Test results from patent publication US9176114B2, “Cell culture model for acquired chemoresistance of chronic myelogenous leukemia and related methods for identifying agents to overcome resistance” (CITY OF HOPE, priority 2007, dated 2015).
Counter-ions that a name gives are not always drawn.

Experiments:
[1] = test system: CML mice; conditions: P210 BCR-ABL BALB/c model; cited from earlier work
[2] = test system: K562 cells; assay: Growth factor-induced transient resistance (serum-free medium, basic supplements, insulin); assay type: cell-based, human; conditions: 1 μM STI-571, two days pre-incubation in SF medium with basic supplements
Description: (A) Growth curves of K562 cells in serum medium, and serum-free medium supplied with basic supplements containing 5 μg/ml insulin and 5 μg/ml transferrin (basic) with or without 75 ng/ml EGF, 25 μg/ml HDL or both (EH). […] Relative survival of imatinib treated cells was calculated by comparison to no drug treatment. Pre-incubation for two days renders resistance. […] Since sirtinol is insoluble in SF medium, HDL 25 μg/ml was added to help dissolve the drug. (D) Effects of basic supplements in serum medium. […] Viable cells were counted one and three days after the treatment. […] (F) Effects of insulin in resistance.
Whether serum-free medium supplied with select growth factors provides a better culture environment for developing CML chemoresistance was determined. Serum-free (SF) medium with insulin, transferring, epidermal growth factor (EGF) and high density lipoprotein (HDL) was used. SF medium with the basic supplements (5 μg/ml insulin and 5 μg/ml transferring) was sufficient to support growth of both K562 cells (FIG. 13A) and KCL-22 cells. […] Sirtinol is able to overcome CML resistance in SF culture.
Transient resistance conferred by insulin and transferrin supplement is of interest as insulin receptor is overexpressed in about 90% primary CML cells. The key insulin downstream target phosphatidylinositol-3 kinase (PI3K) is required for BCR-ABL mediated transformation and inhibition of PI3K-Akt-mTor pathway has been explored to overcome CML chemoresistance. SIRT1 is a key gene for regulating insulin secretion and directly regulates Akt downstream target FOXO proteins through deacetylation. Therefore, the effect of insulin itself for transient resistance to imatinib and the response of sirtinol treatment were examined.

[3] = test system: SIRT1 promoter; assay: SIRT1 promoter assay (luciferase reporter); assay type: cell-based, human; conditions: KCL-22 and K562 cells
Description: FeOfection reagent (GENOVIS) was used to transfect 0.18 μg reporter and 0.02 μg pmaxGFP each well per the manufacturer's instruction. Six hours after transfection, cells were treated with imatinib and harvested after another 30 hs. Luciferase activity was measured using Dual-Luciferase Assay System (Promega), and normalized to GFP reading in each lysate.

[4] = test system: SIRT1; assay: SIRT1 protein expression by Western blot; assay type: cell-based, human
Description: (§1) SIRT1 expression was analyzed by Western blot using 1:5000 diluted rabbit monoclonal SIRT1 antibody (Epitomics). Controls used were GAPDH or actin as loading controls with rabbit anti-GAPDH (Trevigen) or anti-actin (Sigma) at 1:5000 dilution. GAPDH [>ref|NT—009759.15|Hs12—9916:6497433-6502281 Homo sapiens chromosome 12 genomic contig, reference assembly] primers used are as follows: […]
RNA was extracted with Trizol (Invitrogen), synthesized the first strand DNA with Superscript III kit (Invitrogen), and analyzed gene expression using SYBR GreenER qPCR SuperMix kit (Invitrogen). For Western blots, rabbit monoclonal anti-human SIRT1 (Epitomics), rabbit anti-mouse SIRT1 (Upstate Biotech), mouse monoclonal anti-c-ABL (BD Pharmingen), mouse monoclonal anti-Ku70 (Neomarker), rabbit polyclonal anti-acetylated p53 (Cell Signaling) and rabbit polyclonal anti-acetylated FOXO1 (Santa Cruz Biotech) were used. To analyze Ku70 acetylation, Ku70 was pulled down from total cell lysate with anti-Ku70 and protein A-agarose beads (Upstate Biotech) followed by acetylation detection with rabbit anti-acetyl lysine antibody (Cell Signaling).

[5] = test system: KU-812 xenograft; conditions: relapse after 48 to 60 days; cited from earlier work
[6] = test system: KCL-22 cells; assay: Resistance assay: relapse of KCL-22 cells in prolonged liquid culture (CML acquired resistance model); assay type: cell-based, human; conditions: for relapse of KCL-22 cells on imatinib (STI-571) in combination with the inhibitor: prolonged culture
Excerpt: Cells were maintained in these cultures without changing medium.
Cells were maintained in these cultures without changing medium. Aliquots of cells were taken out at specified time points and cell numbers counted using a hematocytometer. Cell viability was accessed by trypan blue exclusion where necessary.

[7] = test system: KCL-22M cells; conditions: 1 μM inhibitor
Description: Cell cycle was analyzed by fixing cells with 70% ethanol at −20° C. overnight. After washing, cells were resuspended in phosphate-buffered saline containing 1 mg/ml RNase A, incubated for 30 min at 37° C., and then stained with propidine iodine (50 μg/ml) for 30 min at room temperature before flow cytometry analysis. Cell proliferation was analyzed using a XTT Cell Proliferation kit (Roche Applied Science), and apoptosis was analyzed with annexin V kit (BD Pharmingen) as per the manufacturer's instruction.

[8] = test system: KCL-22 cells; assay: Analysis of reactive oxygen species (ROS) and DNA damage (γH2AX); assay type: cell-based, human; conditions: 24 h, in the presence or absence of imatinib
Description: ROS was analyzed using redox-sensitive fluorochrome 2′.7′-dichlorofluorescein diacetate (Sigma) as described previously (Koptyra et al. 2006). When coupled with the apoptosis analysis, cells were labeled with annexin V first and then 2′.7′-dichlorofluorescein diacetate.
Cells were pre-selected for four days in HAT medium to remove pre-existing HPRT mutations. The efficiency of HAT selection was confirmed by plating these cells on soft agar with 2.5 μg/ml 6-thioguanine, which produced zero colony. HAT-selected cells were then treated with 0.5 μM CPT for 1 hour, and then cultured for 10 days before used for soft agar clonogenic assay with 6-thioguanine selection. The rest of HAT-selected cells were cultured in medium without selection. The change of γH2AX was analyzed with γH2AX Assay Kit (Upstate Biotech).

[9] = test system: HIC1; assay: HIC1 expression / SIRT1 level after HDAC and DNMT inhibitors; assay type: cell-based, human; conditions: KCL-22 cells, alone or in combination
Excerpt: Total cellular RNA with Trizol (Invitrogen) using a standard protocol. First strand DNA was synthesized and HIC1 expression by quantitative real-time RT-PCR using a kit with SYBR Green label (Invitrogen) as per the manufacture's instruction on a BioRad machine OPTICON. The following are the HIC1 primers (spanning introns), 5′-[…]-3′(exon 1a) and 5′-[…]-3′ (Exon 2). [>ref|NT—010718.15|Hs17—10875:1561637-1565694 Homo sapiens chromosome 17 genomic contig, reference assembly]
as §1

[10] = test system: SIRT1 and other sirtuin deacetylases; conditions: cited from earlier work
[11] = Physiological indexes of normal BALB/c mice after 10 day treatment; assay type: in vivo; conditions: tenovin-6 alone or in combination with imatinib
[12] = test system: CML CD34+ cells; assay: Apoptosis and p53 acetylation in primary CML CD34+ cells; assay type: cell-based, human
Excerpt: FIG. 32 illustrates that SIRT1 inhibition enhances apoptosis of human CML progenitor cells. (A) Inhibition of SIRT1 protein expression in CML and cord blood (CB) CD34+ cells by lentivirus-mediated expression of SIRT1 shRNA. […] (C) SIRT1 inhibition in CML CD34+ cells results in increased P53 acetylation. […] (F) SIRT1 expression in CB and AML CD34+ cells.

[13] = Solubility; assay type: physicochemical
[14] = test system: CML mice; assay: Mouse bone marrow transduction/transplantation model of CML-like disease, drug treatment
[15] = test system: AML CD34+ cells; assay: Apoptosis of AML CD34+ cells; assay type: cell-based, human
[16] = 1 μM TSA with all dosages of STI-571

SMILES: Cc1ccc(NC(=O)c2ccc(CN3CCN(C)CC3)cc2)cc1Nc1nccc(-c2cccnc2)n1 [STI-571, Imatinib mesylate]
- mice with prolonged survival on STI-571 [1]: 80%
- sensitivity of K562 cells to STI-571 in SF medium [2]: as refractory as KCL-22 cells
- SIRT1 promoter activity [3]: significantly inhibited SIRT1 promoter activity
- SIRT1 expression ([4]; KCL-22M cells): did not change SIRT1 expression
- SIRT1 protein levels ([4]; KCL-22 and K562 cells, imatinib 48 hours): decreased in a drug concentration-dependent manner
- fraction of mice relapsing on STI-571 [5]: one third
- sensitivity of KCL-22 cells to treatment ([6]; 1 μM STI-571): insensitive

SMILES: CC(/C=C/C(=O)NO)=C\[C@@H](C)C(=O)c1ccc(N(C)C)cc1 [TSA, trichostatin A]
- growth of KCL-22M cells [7]: no effect on cell growth
- γH2AX expression [8]: elicited robust γH2AX induction
- cell killing in combination with STI-571 [6, 16]: massive apoptosis and dramatic cell killing
- relapse on TSA plus STI-571 [6, 16]: After ten days, cells on all dosages of STI-571 relapsed
- toxicity on KCL-22 cells, inhibitor alone ([6]; TSA at 1 μM alone): little toxicity
- relapse of KCL-22 cells on imatinib (STI-571) in combination with the inhibitor [6]: fails to block relapse
- reactivation of HIC1 expression / reduction of SIRT1 level [9]: could not reactivate HIC1 expression or reduce SIRT1 level
- sensitivity of SIRT1 to the inhibitor [10]: insensitive

SMILES: CN(C)CCCCC(=O)Nc1ccc(NC(=S)NC(=O)c2ccc(C(C)(C)C)cc2)cc1 [tenovin-6]
- toxicity [11]: No noticeable toxicity
- P53 acetylation in CML CD34+ cells [12]: enhanced P53 acetylation
- apoptosis of primitive CML CD34+CD38- progenitors incl. quiescent fraction [12]: increased apoptosis
- water solubility [13]: water soluble
- CML mouse survival ([14]; 50 mg/kg/day, 10 days from day 10 after transplantation): significantly extended CML mouse survival
- CML mouse survival, combination ([14]; tenovin-6 with imatinib): longest survivors
- lowest dose that blocked relapse on imatinib [6]: 1 µM
- recurrence on nilotinib or dasatinib in combination with SIRT1 inhibitor [6]: effectively blocked the recurrence
- relapse on […] Nilotinib in combination with SIRT1 inhibitor [6]: blocked relapse
- relapse on 1 μM Dasatinib in combination with tenovin-6 ([6]; 1 μM tenovin-6): delayed the relapse
- relapse on 1 μM Dasatinib in combination with tenovin-6 ([6]; 5 μM tenovin-6): blocked relapse
- relapse of KCL-22 cells on imatinib (STI-571) in combination with the inhibitor [6]: blocks relapse
- apoptosis of AML CD34+ cells [15]: induced apoptosis
